Results published in patent US7273848B2, “Apolipoprotein A-I agonists and their use to treat dyslipidemic disorders” (priority 1997, dated 2007).
Non-standard residues stand in square brackets, D forms with d. Residues, ends and D or L forms follow the SMILES beside them. No end group written: not given here. Aib = CC(C)(N)C(=O)O

biological target: T1, LCAT (purified from human plasma) (Homo sapiens, UniProt P04180); assay: LCAT activation assay; type: biochemical; details: LCAT activation as compared with native human ApoA-I (= 100%), equivalent masses
T1 construct: from tissue; host or cells: human plasma
T1 sequence (P04180 25-440): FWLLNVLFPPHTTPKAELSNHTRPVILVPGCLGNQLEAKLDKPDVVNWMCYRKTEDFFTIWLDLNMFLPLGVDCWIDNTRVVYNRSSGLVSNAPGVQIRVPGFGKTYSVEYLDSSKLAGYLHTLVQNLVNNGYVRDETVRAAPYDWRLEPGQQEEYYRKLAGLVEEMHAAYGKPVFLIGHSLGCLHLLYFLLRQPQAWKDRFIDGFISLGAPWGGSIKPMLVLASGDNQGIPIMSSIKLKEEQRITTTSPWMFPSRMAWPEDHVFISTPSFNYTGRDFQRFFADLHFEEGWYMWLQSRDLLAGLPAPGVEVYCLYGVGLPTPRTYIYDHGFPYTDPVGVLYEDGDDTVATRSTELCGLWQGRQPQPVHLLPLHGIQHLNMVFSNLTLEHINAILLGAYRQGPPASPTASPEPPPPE
Protocol: The peptides synthesized as described in Section 6, supra, were analyzed in vitro for their ability to activate LCAT. In the LCAT assay, substrate vesicles (small unilamellar vesicles or “SUVs”) composed of egg phophatidylcholine (EPC) or 1-Palmitoyl-2-oleyl-phosphatidyl-choline (POPC) and radiolabelled cholesterol are preincubated with equivalent masses either of peptide or ApoA-I (isolated from human plasma). The reaction is initiated by addition of LCAT (purified from human plasma). Native ApoA-I, which was used as positive control, represents 100% activation activity. “Specific activity” (i.e., units of activity (LCAT activation)/unit of mass) of the peptides can be calculated as the concentration of peptide that achieves maximum LCAT activation. For example, a series of concentrations of the peptide (e.g., a limiting dilution) can be assayed to determine the “specific activity” for the peptide—the concentration which achieves maximal LCAT activation (i.e., percentage conversion of cholesterol to cholesterol ester) at a specific timepoint in the assay (e.g., 1 hr.). When plotting percentage conversion of cholesterol at, e.g., 1 hr., against the concentration of peptide used, the “specific activity” can be identified as the concentration of peptide that achieves a plateau on the plotted curve.
The vesicles used in the LCAT assay are SUVs composed of egg phosphatidylcholine (EPC) or 1-palmitoyl-2-oleyl-phosphatidylcholine (POPC) and cholesterol with a molar ratio of 20:1. To prepare a vesicle stock solution sufficient for 40 assays, 7.7 mg EPC (or 7.6 mg POPC; 10 μmol), 78 μg (0.2 μmol) 4-^14C-cholesterol, 116 μg cholesterol (0.3 μmol) are dissolved in 5 ml xylene and lyophilized. Thereafter 4 ml of assay buffer is added to the dry powder and sonicated under nitrogen atmosphere at 4° C. Sonication conditions: Branson 250 sonicator, 10 mm tip, 6×5 minutes; Assay buffer: 10 mM Tris, 0.14 M NaCl, 1 mM EDTA, pH 7.4). The sonicated mixture is centrifuged 6 times for 5 minutes each time at 14,000 rpm (16,000×g) to remove titanium particles. The resulting clear solution is used for the enzyme assay.
For the LCAT purification, dextran sulfate/Mg^2+ treatment of human plasma is used to obtain lipoprotein deficient serum (LPDS), which is sequentially chromatographed on Phenylsepharose, Affigelblue, ConcanavalinA sepharose and anti-ApoA-I affinity chromatography, as summarized for a representative purification in TABLE IX, below: […]

| Molecule | ACTIVITY (%) LCAT |
| --- | --- |
| CC(C)C[C@H](NC(=O)[C@H](C)NC(=O)[C@H](CCC(=O)O)NC(=O)[C@H](CC(C)C)NC(=O)C(C)(C)NC(=O)[C@H](CCC(=O)O)NC(=O)[C@H](CC(N)=O)NC(=O)[C@H](CC(C)C)NC(=O)[C@H](CCCCN)NC(=O)[C@H](CCC(=O)O)NC(=O)[C@H](CCCNC(=N)N)NC(=O)[C@H](Cc1ccccc1)NC(=O)[C@H](Cc1ccccc1)NC(=O)[C@H](CC(=O)O)NC(=O)[C@H](CC(C)C)NC(=O)[C@@H](NC(=O)[C@@H]1CCCN1)C(C)C)C(=O)N[C@@H](CCCCN)C(=O)N[C@@H](CCC(N)=O)C(=O)N[C@@H](CCCCN)C(=O)N[C@@H](CC(C)C)C(=O)N[C@@H](CCCCN)C(=O)O [compound 63, PVLDFFREKLNEXLEALKQKLK] (H-PVLDFFREKLNE[Aib]LEALKQKLK-OH) | 16% |
| PVLELFLNLWERLLDALQKKLK [peptide 155] | 38% |
| CC(C)C[C@H](NC(=O)[C@H](C)NC(=O)[C@H](CCC(=O)O)NC(=O)[C@H](CC(C)C)NC(=O)C(C)(C)NC(=O)[C@H](CCC(=O)O)NC(=O)[C@H](CC(N)=O)NC(=O)[C@H](CC(C)C)NC(=O)[C@H](CCCCN)NC(=O)[C@H](Cc1c[nH]c2ccccc12)NC(=O)[C@H](CCCNC(=N)N)NC(=O)[C@H](Cc1ccccc1)NC(=O)[C@H](CCC(=O)O)NC(=O)[C@H](CC(=O)O)NC(=O)[C@H](CC(C)C)NC(=O)[C@@H](NC(=O)[C@@H]1CCCN1)C(C)C)C(=O)N[C@@H](CCCCN)C(=O)N[C@@H](CCC(N)=O)C(=O)N[C@@H](CCCCN)C(=O)N[C@@H](CC(C)C)C(=O)N[C@@H](CCCCN)C(=O)O [compound 61, PVLDEFRWKLNEXLEALKQKLK] (H-PVLDEFRWKLNE[Aib]LEALKQKLK-OH) | 16% |
| CC(C)C[C@H](NC(=O)[C@H](C)NC(=O)[C@H](CCC(=O)O)NC(=O)[C@H](CC(C)C)NC(=O)C(C)(C)NC(=O)[C@H](CCC(=O)O)NC(=O)[C@H](CC(N)=O)NC(=O)[C@H](CC(C)C)NC(=O)[C@H](CCCCN)NC(=O)[C@H](CCC(=O)O)NC(=O)[C@H](CCCNC(=N)N)NC(=O)[C@H](Cc1ccccc1)NC(=O)[C@H](CCC(=O)O)NC(=O)[C@H](CC(=O)O)NC(=O)[C@H](CC(C)C)NC(=O)[C@@H](NC(=O)[C@@H]1CCCN1)C(C)C)C(=O)N[C@@H](CCC(=O)O)C(=O)N[C@@H](CCC(N)=O)C(=O)N[C@@H](CCCCN)C(=O)N[C@@H](CC(C)C)C(=O)N[C@@H](CCCCN)C(=O)O [compound 118, PVLDEFREKLNEXLEALEQKLK] (H-PVLDEFREKLNE[Aib]LEALEQKLK-OH) | 0% |
| Ac-GVLDLFRELLEELKQKLK-NH2 [compound 198] | 80% |
| PVLELFEQLLEKLLDALQKKLK [compound 168] | 17% |
| CC(C)C[C@H](NC(=O)[C@H](C)NC(=O)[C@H](CCC(=O)O)NC(=O)[C@H](CC(C)C)NC(=O)C(C)(C)NC(=O)[C@H](CCC(=O)O)NC(=O)[C@H](Cc1c[nH]c2ccccc12)NC(=O)[C@H](CC(C)C)NC(=O)[C@H](CCCCN)NC(=O)[C@H](CCC(=O)O)NC(=O)[C@H](CCCNC(=N)N)NC(=O)[C@H](Cc1ccccc1)NC(=O)[C@H](CCC(=O)O)NC(=O)[C@H](CC(=O)O)NC(=O)[C@H](CC(C)C)NC(=O)[C@@H](NC(=O)[C@@H]1CCCN1)C(C)C)C(=O)N[C@@H](CCCCN)C(=O)N[C@@H](CCC(N)=O)C(=O)N[C@@H](CCCCN)C(=O)N[C@@H](CC(C)C)C(=O)N[C@@H](CCCCN)C(=O)O [compound 43, PVLDEFREKLWEXLEALKQKLK] (H-PVLDEFREKLWE[Aib]LEALKQKLK-OH) | 25% |
| DWFKAFYDKVFEKFKEFF [peptide 241, reference compound] | 8% |
| CC(C)C[C@H](NC(=O)[C@H](C)NC(=O)[C@H](CCC(=O)O)NC(=O)[C@H](CC(C)C)NC(=O)C(C)(C)NC(=O)[C@H](CCC(=O)O)NC(=O)[C@H](CC(N)=O)NC(=O)[C@H](Cc1ccc(O)cc1)NC(=O)[C@H](CC(C)C)NC(=O)[C@H](CCC(=O)O)NC(=O)[C@H](CCCNC(=N)N)NC(=O)[C@H](Cc1ccccc1)NC(=O)[C@H](CCC(=O)O)NC(=O)[C@H](CC(=O)O)NC(=O)[C@H](CC(C)C)NC(=O)[C@@H](NC(=O)[C@@H]1CCCN1)C(C)C)C(=O)N[C@@H](CCCCN)C(=O)N[C@@H](CCC(N)=O)C(=O)N[C@@H](CCCCN)C(=O)N[C@@H](CC(C)C)C(=O)N[C@@H](CCCCN)C(=O)O [compound 92, PVLDEFRELYNEXLEALKQKLK] (H-PVLDEFRELYNE[Aib]LEALKQKLK-OH) | 5% |
| PVLELFLNLLERLLDWLQKKLK [compound 158] | 30% |
| PVLDAFRELAEALAQLKK [compound 225] | 1% |
| AVLELFENLLERLLDALQKKLK [peptide 153] | 49% |
| Ac-PVLDLFRELLEELKNKLK-NH2 [compound 196] | 81% |
| PVLELFERLLDELLNALQKKLK [compound 86] | 7% |
| Ac-PLLELLKELLEELKQKLK-NH2 [compound 206] | 57% |
| CC(C)C[C@H](NC(=O)[C@H](C)NC(=O)[C@H](CCC(=O)O)NC(=O)[C@H](CC(C)C)NC(=O)C(C)(C)NC(=O)[C@H](CCC(=O)O)NC(=O)[C@H](CC(N)=O)NC(=O)[C@H](CC(C)C)NC(=O)[C@H](CCCCN)NC(=O)[C@H](CCC(=O)O)NC(=O)[C@H](CCCNC(=N)N)NC(=O)[C@H](Cc1ccccc1)NC(=O)[C@H](CCC(=O)O)NC(=O)[C@H](CC(=O)O)NC(=O)[C@H](CC(C)C)NC(=O)[C@H](Cc1c[nH]cn1)NC(=O)[C@@H]1CCCN1)C(=O)N[C@@H](CCCCN)C(=O)N[C@@H](CCC(N)=O)C(=O)N[C@@H](CCCCN)C(=O)N[C@@H](CC(C)C)C(=O)N[C@@H](CCCCN)C(=O)O [compound 116, PHLDEFREKLNEXLEALKQKLK] (H-PHLDEFREKLNE[Aib]LEALKQKLK-OH) | 0% |
| Ac-PVLELFKELLEELKQKLK-NH2 [compound 195] | 87% |
| PVLELWENLLERLLDALQKKLK [compound 176] | 11% |
| CC(C)C[C@H](NC(=O)[C@H](C)NC(=O)[C@H](CCC(=O)O)NC(=O)[C@H](CC(C)C)NC(=O)C(C)(C)NC(=O)[C@H](CCC(=O)O)NC(=O)[C@H](CC(N)=O)NC(=O)[C@H](CC(C)C)NC(=O)[C@H](CCCCN)NC(=O)[C@H](CCC(=O)O)NC(=O)[C@H](CCCNC(=N)N)NC(=O)[C@H](Cc1ccccc1)NC(=O)[C@H](CCC(=O)O)NC(=O)[C@H](CC(=O)O)NC(=O)[C@H](CC(C)C)NC(=O)[C@H](CCCCN)NC(=O)[C@@H]1CCCN1)C(=O)N[C@@H](CCCCN)C(=O)N[C@@H](CCC(N)=O)C(=O)N[C@@H](CCCCN)C(=O)N[C@@H](CC(C)C)C(=O)N[C@@H](CCCCN)C(=O)O [compound 115, PKLDEFREKLNEXLEALKQKLK] (H-PKLDEFREKLNE[Aib]LEALKQKLK-OH) | 0% |
| PVLELFENGLERLLDALQKKLK [compound 167] | 18% |
| CC(C)C[C@H](NC(=O)[C@H](C)NC(=O)[C@H](CCC(=O)O)NC(=O)[C@H](CC(C)C)NC(=O)C(C)(C)NC(=O)[C@H](CCC(=O)O)NC(=O)[C@H](CC(N)=O)NC(=O)[C@H](CC(C)C)NC(=O)[C@H](CCCCN)NC(=O)[C@H](CCC(=O)O)NC(=O)[C@H](CCCNC(=N)N)NC(=O)[C@H](Cc1ccccc1)NC(=O)[C@H](CCC(=O)O)NC(=O)[C@H](CC(=O)O)NC(=O)[C@H](Cc1c[nH]c2ccccc12)NC(=O)[C@@H](NC(=O)[C@@H]1CCCN1)C(C)C)C(=O)N[C@@H](CCCCN)C(=O)N[C@@H](CCC(N)=O)C(=O)N[C@@H](CCCCN)C(=O)N[C@@H](CC(C)C)C(=O)N[C@@H](CCCCN)C(=O)O [compound 52, PVWDEFREKLNEXLEALKQKLK] (H-PVWDEFREKLNE[Aib]LEALKQKLK-OH) | 20% |
